# From patent US6365618B1, “Administration of carvedilol to mitigate tardive movement disorders, psychosis, mania, and depression” (priority 2000, dated 2002)
# Columns and labels:
# [1] = cited from earlier work
# [2] = tested on: tardive dyskinesia; test: Case reports: oral carvedilol in hospitalized patients with tardive dyskinesia; type: in vivo, human
# Description: (§1) Clozapine is recognized as a drug that, because of dangerous side-effects, is reserved as the last resort after the failure of long courses and high doses of several other antipsychotic medications. […] Carvedilol 6.25 mg once daily was then started. On 11/15 the carvedilol dose was increased to 6.25 mg twice daily. […] On the ninth hospital day carvedilol was discontinued.
# On the first hospital day carvedilol 3.125 mg twice daily was started. […] Carvedilol was then restarted. […] Carvedilol was continued for a month.
# This person was admitted to the hospital for the treatment of an anxiety disorder whose symptoms included insomnia, nightmares, unhappiness, suicidality, continual worry, and panic attacks. They had previously taken the antidepressants nortriptyline and fluoxetine, and was taking nefazodone 375 mg/day for one year. They were also taking the antihypertensive medication benazepril 40 mg/day, and the sleeping medication zaleplon 10 mg/day. […] They then received carvedilol 3.125 mg twice daily.
# This person was in the hospital because of difficulty swallowing. […] This aspiration put them at risk of aspiration pneumonia, which is disabling and can be life-threatening. For them to receive water and food a tube was surgically inserted between their stomach and the outside of their abdomen. […] They then received carvedilol 6.25 mg twice daily.
# [3] = tested on: tardive akathisia; test: Case reports: oral carvedilol, agitated movements of tardive akathisia; type: in vivo, human
# Text: These movements were consistent with tardive dyskinesia. […] They mentioned having been told by several psychiatrists that […] has tardive dyskinesia, and that […]'d previously taken numerous different antipsychotic drugs, including risperidone, olanzapine, and clozapine. Clozapine is recognized as a drug that, because of dangerous side-effects, is reserved as the last resort after the failure of long courses and high doses of several other antipsychotic medications. On the third hospital day, a Friday (Nov. 13, 1998), the tongue protrusion movements continued unchanged. Carvedilol 6.25 mg once daily was then started. On 11/15 the carvedilol dose was increased to 6.25 mg twice daily. When next evaluated, at 9am on Monday 11/16, the tongue protrusions were absent. The absence of dyskinesia persisted despite the patient's repeated expressions of anxiety and anxious thoughts. […] Agitation then decreased, a sign of improvement in tardive akathisia. On the ninth hospital day carvedilol was discontinued. The patient was discharged on the 15th hospital day, without recurrence of any tongue protrusion, and without observable agitation. […] They spontaneously complained that children in their neighborhood mocked them and called them a witch because of the tongue movements. They stated that […] avoids leaving the house because of harassment by the children. […]
# [4] = tested on: tardive dystonia; test: Case report: oral carvedilol, tardive dystonia and swallowing difficulty; type: in vivo, human; conditions: Case #4; carvedilol 6.25 mg twice daily; 28 hours, after three doses
# Text: This person was in the hospital because of difficulty swallowing. This began about a year prior to hospitalization while taking haloperidol and lithium medications. Increasingly they would cough while eating or drinking. […] The swallowing difficulty worsened despite replacement of lithium and haloperidol with divalproex and olanzapine. […] This aspiration put them at risk of aspiration pneumonia, which is disabling and can be life-threatening. For them to receive water and food a tube was surgically inserted between their stomach and the outside of their abdomen. […] When they tried to drink water from a cup these movements obviously interfered with swallowing. […] On the Abnormal Involuntary Movement SCALE (AIMS) they scored 13. They then received carvedilol 6.25 mg twice daily. Twenty-eight hours later, after three doses, their swallowing was rated by the Speech Therapy Department as 70% improved.
# [5] = Side effects of carvedilol in patients; type: in vivo, human
# Description: as §1
# [6] = cited from earlier work; remark: listed apart in the source
# [7] = tested on: acute dystonias induced by antipsychotic medication; conditions: monkeys; cited from earlier work
# [8] = tested on: orofacial movements caused by haloperidol; conditions: one-day and two-week trials; cited from earlier work
# [9] = tested on: tardive dyskinesia; conditions: most studies; cited from earlier work
# [10] = Case #3, carvedilol 3.125 mg twice daily, 24 hours, after two doses
molecule,measurement,setting,value
"COc1ccccc1OCCNCC(O)COc1cccc2[nH]c3ccccc3c12 (racemic) [carvedilol, ±-1-(carbazol-4-yloxy)-3-[[2-(o-methyoxyphenoxy)ethyl]amino]-2-propanol]",in vitro antioxidant activity,[1],exceptionally potent
same,tongue protrusions,"[2]; Case #1, carvedilol 6.25 mg once daily, then twice daily, evaluated after 3 days",absent
same,tongue protrusions,"[2]; Case #2, carvedilol 3.125 mg twice daily, next day",no extensions of the tongue out of the mouth occurred
same,tongue protrusions after carvedilol restarted,"[2]; Case #2, rehospitalized, carvedilol restarted, beginning on the next day",no longer seen
same,chewing movements,[2]; [10],gone
same,lip and tongue movements,[2]; [10],in normal range
same,AIMS score (Abnormal Involuntary Movement Scale),"[2]; Case #3, carvedilol 3.125 mg twice daily, 24 hours, after two doses, score before treatment 11",6
same,tongue dyskinesia,"[2]; Case #4, carvedilol 6.25 mg twice daily, 28 hours, after three doses",decreased from mild to marginal
same,AIMS score (Abnormal Involuntary Movement Scale),"[2]; Case #4, carvedilol 6.25 mg twice daily, 28 hours, after three doses, score before treatment 13",8
same,agitation (sign of tardive akathisia),"[3]; Case #1, carvedilol 6.25 mg in the morning and 12.5 mg at bedtime",decreased
same,agitated movements consistent with tardive akathisia,"[3]; Case #2, at discharge after one week of carvedilol",no agitated movements
same,facial dystonia,[4],disappeared
same,neck dystonia,[4],decreased from moderate to mild
same,swallowing improvement rated by Speech Therapy Department,[4],70%
same,faintness or bradycardia,"[5]; Case #1, carvedilol 6.25 mg twice daily",lack of any faintness or bradycardia
same,side effects,[5]; usually effective doses to treat TD,non-existent or mild
same,average elimination half-life,[6]; from the human body,about 8 hours
same,absorption,[6]; taken by mouth,rapid and complete
C#CCN(C)Cc1ccccc1 [pargyline],acute dystonias induced by antipsychotic medication,[7],reduced
CC(C)NCC(O)COc1cccc2ccccc12 (stereo not drawn) [propranolol],orofacial movements caused by haloperidol,[8],did not diminish
vitamin E,improvement of TD,[9],no significant improvement
